Experimental data taken from US20250368714A1, “TREATMENT OF CANCER” (Immutep S.A.S., priority 2022, published 2025).
Like-named read-outs stand apart in the source and are kept apart here.

How the values were obtained:
[1] = test system: Patients with HR+ HER2-Neg/Low after Failure of ET Based Therapy; conditions: No prior CDK4/6; cited from earlier work
[2] = test system: Patients with HR+ HER2-Neg/Low after Failure of ET Based Therapy; experiment: Efficacy of single agent chemotherapy after failure of ET based therapy; assay type: in vivo, human; conditions: Prior CDK4/6
Description: Efficacy of Single Agent Chemotherapy for Patients with HR^+ HER2-Neg/Low after Failure of ET Based Therapy

[3] = test system: HER2 negative hormone receptor-positive metastatic breast cancer patients; experiment: AIPAC Phase IIb study: paclitaxel+IMP321 vs paclitaxel+placebo, overall survival; assay type: in vivo, human; conditions: AIPAC paclitaxel plus placebo group
Description: A multicentre, placebo-controlled, double-blind, 1:1 randomised Phase IIb study in female HER2 negative hormone receptor-positive metastatic breast cancer patients was conducted. The study comprised two stages: • stage 1 which was an open-label, safety run-in stage consisting of cohorts 1 and 2 to confirm the recommended Phase II dose (RPTD) of IMP321 in combination with paclitaxel; and • stage 2 which was a placebo-controlled, double-blind randomisation stage, paclitaxel+IMP321 at the RPTD compared to paclitaxel+placebo.
The chemo-immunotherapy phase consisted of 6 cycles of 4 weeks. Patients received weekly paclitaxel at Days 1, 8 and 15 with adjunctive treatment of study agent (IMP321) on Days 2 and 16 of each 4-week cycle. After completion of the 6-cycle chemo-immunotherapy phase, responding or stable patients received study agent (IMP321) every 4 weeks during the maintenance phase for an additional period of up to 12 injections.
The chemo-immunotherapy phase consisted of 6 cycles of 4 weeks. Patients received weekly paclitaxel at Days 1, 8 and 15 with adjunctive treatment of study agent (placebo) on Days 2 and 16 of each 4-week cycle.
After completion of the 6-cycle chemo-immunotherapy phase, responding or stable patients received study agent (placebo) every 4 weeks during the maintenance phase for an additional period of up to 12 injections. […]

[4] = test system: unresectable locally advanced or metastatic PD-L1 positive TNBC; conditions: PD-L1 inhibitor plus paclitaxel; cited from earlier work
[5] = test system: locally recurrent unresectable or metastatic TNBC; conditions: patients with CPS of 10 or more; cut-off Dec. 11, 2019; placebo-chemotherapy 5.6; cited from earlier work

## CCCCCOC(=O)Nc1nc(=O)n([C@@H]2O[C@H](C)[C@@H](O)[C@H]2O)cc1F [Capecitabine, capecitabine]
[1]
  ORR (%): 19-30%
  OS (months): 9.3-18 months
  PFS (months): 2.8-5.9 months

## CC(=O)O[C@H]1C(=O)[C@@]2(C)[C@H]([C@H](OC(=O)c3ccccc3)[C@]3(O)C[C@H](OC(=O)[C@H](O)[C@@H](NC(=O)c4ccccc4)c4ccccc4)C(C)=C1C3(C)C)[C@]1(OC(C)=O)CO[C@@H]1C[C@@H]2O [Paclitaxel, paclitaxel]
[2]
  ORR (%): 36%
  OS (months): 14.9 months
  PFS (months): 6.7 months
[3]; no prior CDK4/6 therapy
  OS: 20.4 months
[3]; patients pre-treated with CDK4/6
  median OS: 14.9 months
[1]
  ORR (%): 21-51%
  OS (months): 20.4-25.8 months
  PFS (months): 5.9-8.8 months

## atezolizumab: PD-L1 inhibitor tested plus paclitaxel in IMpassion131
[4]
  PFS over paclitaxel alone: did not demonstrate a statistically significant improvement in PFS

## pembrolizumab-chemotherapy: pembrolizumab in combination with chemotherapy (paclitaxel, nab-paclitaxel, or carboplatin-gemcitabine), KEYNOTE-355
[5]
  median PFS: 9.7 months
